Measured values reported in patent US9951089B2, “Methods of treating a fatty acid amide hydrolase-mediated condition” (INFINITY PHARMACEUTICALS, INC., priority 2010, dated 2018).

Biological target: T1, rat FAAH (Rattus norvegicus, UniProt P97612)
T1 construct: encoding for amino acids 32-579 and an N-terminal His-tag; His-tag (N); made in house; host or cells: E. coli BL21 (DE3)
T1 sequence (P97612 32-579): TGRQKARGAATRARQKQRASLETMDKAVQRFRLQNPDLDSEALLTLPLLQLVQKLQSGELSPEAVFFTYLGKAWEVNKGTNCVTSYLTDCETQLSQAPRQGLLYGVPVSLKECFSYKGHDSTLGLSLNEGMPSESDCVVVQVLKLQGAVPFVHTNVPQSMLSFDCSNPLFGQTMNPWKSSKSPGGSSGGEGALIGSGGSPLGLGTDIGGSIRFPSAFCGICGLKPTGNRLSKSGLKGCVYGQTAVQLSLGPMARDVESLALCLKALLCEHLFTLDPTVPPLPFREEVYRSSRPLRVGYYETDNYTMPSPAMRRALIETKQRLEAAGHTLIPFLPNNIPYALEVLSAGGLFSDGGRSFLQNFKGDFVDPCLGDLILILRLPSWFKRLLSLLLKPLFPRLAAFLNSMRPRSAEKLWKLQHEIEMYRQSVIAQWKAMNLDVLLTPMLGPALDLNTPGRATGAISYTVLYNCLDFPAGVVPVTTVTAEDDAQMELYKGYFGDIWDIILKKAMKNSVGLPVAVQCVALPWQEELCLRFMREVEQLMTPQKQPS
Assay: Ki determination, rat FAAH (AMC-arachidonoyl amide hydrolysis, fluorescence end point)
Type: biochemical
Details: rFAAH 6 nM, substrate 20 μM, 30 min preincubation, 4 hours at room temperature
Experimental: An N-terminal transmembrane domain deleted rat FAAH (rFAAH) was cloned as described in Patricelli et al., Biochemistry (1998) 37:15177-15187, encoding for amino acids 32-579 and an N-terminal His-tag, herein referred to as rFAAH. E. coli BL21 (DE3) were transformed according to manufacturer protocols (Invitrogen) and rFAAH was expressed and purified from a modified procedure described in Patricelli et al., 1998.
Briefly, 8 L of cells were cultured to an OD600nm of 0.6 at 37° C., and FAAH expression induced by 1 mM IPTG, followed by 4 hours of growth. Cells were pelleted by centrifugation at 5000×g to generate the cell paste. […]
Soluble rFAAH was purified from the supernatant using nickel (Ni), heparin and size exclusion chromatography (SEC) columns. […] Eluted samples were pooled, concentrated to ˜5 mg/mL and final rFAAH concentrations determined by measuring the absorbance at 280 nm, using an extinction coefficient of ϵ=60850 M^−1 cm^−1. […]
The Ki of a test compound was determined for rat and human FAAH by measuring the dose dependent inhibition of AMC-Arachidonoyl amide hydrolysis as an end point read. Assays were carried out in Corning COSTAR® 384 well flat black bottom microtiter plates (Catalog #3654) and monitored in an Envision 2100 multilabel plate reader (Perkin Elmer-Wallac), with a 355 nm (40 nm band pass) excitation filter and 460 nm (25 nm bandpass) emission filter. […]

- Ki: 5.1 nM
SMILES: OB(O)c1ccc(-c2ccc(B(O)O)c(F)c2)cc1F [IMP-4]
